Patent publication US10538487B2, “Sulfonylureas and related compounds and use of same” (priority 2015, dated 2020)
pIC50: −log10 of the molar value. Read-outs that look alike come from different tables or passages of the source.

Tests used:
[1] = biological target: NLRP3 inflammasome (Homo sapiens, UniProt Q96P20); assay: Inhibition of IL-1β release, NLRP3 inflammasome activation assay in HMDM; type: cell-based
In short: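 Primary human monocyte-derived macrophages from CD14+ buffy-coat monocytes, seeded at 1×10^5/ml. Compound added in serum-free medium 30 min before NLRP3 stimulation (ATP, nigericin, LeuLeu-OMe or MSU). Cytokine in supernatants measured by ELISA or AlphaLISA; cell death by LDH release relative to full lysis.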

[2] = biological target: NLRP3 inflammasome (Mus musculus, UniProt Q8R4B8); assay: Inhibition of IL-1β release, NLRP3 inflammasome activation assay in BMDM; type: cell-based
Experimental: The following assays can be used to determine inhibitory activity of test compounds on the NLRP3 inflammasome using common stimuli such as adenosine triphosphate, nigericin, LeuLeu-OMe or monosodium urate crystals (MSU).
Mouse bone marrow-derived macrophages (BMDM) were derived from bone marrow progenitors isolated from the femurs and tibias of C57BL/6 mice.
BMDM are seeded at 1×10^5/ml. The following day the overnight medium is replaced and cells are stimulated with Ultrapure lipopolysaccharide from Escherichia coli K12 strain (InvivoGen) for 3 h. Medium is removed and replaced with serum free medium (SFM) containing test compound 30 min prior to NLRP3 stimulation. […] ATP can be sourced from Sigma Aldrich, nigericin and MSU from Invivogen and LeuLeu-Ome from Chem-Impex International.
For ELISA and cell death assays cells are seeded in 96 well plates. Supernatants are removed and analysed using ELISA kits according to the manufacturer's instructions (DuoSet® R&D Systems, ReadySetGo!® eBioscience, BD OptEIA™, or Perkin Elmer AlphaLISA®). Cell death is assessed by measurement of LDH release relative to a 100% cell lysis control using the CytoTox96® non-radioactive cytotoxicity assay (Promega).

[3] = inhibition of IL-1β release, class symbols, read-out: Avg. IL-1β IC50 HMDM
[4] = inhibition of IL-1β release, class symbols, read-out: Avg. IL-1β IC50 Murine BMDM
[5] = commercial compounds (Table 9), read-out: HMDM IC50 vs NLRP3
[6] = commercial compounds (Table 9), read-out: BMDM IC50 vs NLRP3
[7] = inhibition of IL-1β release, numeric bounds, read-out: Avg. IL-1β IC50 HMDM
[8] = inhibition of IL-1β release, numeric bounds, read-out: Avg. IL-1β IC50 Murine BMDM

NLRP3 inflammasome (Homo sapiens, UniProt Q96P20), sequence (Q96P20 whole entry): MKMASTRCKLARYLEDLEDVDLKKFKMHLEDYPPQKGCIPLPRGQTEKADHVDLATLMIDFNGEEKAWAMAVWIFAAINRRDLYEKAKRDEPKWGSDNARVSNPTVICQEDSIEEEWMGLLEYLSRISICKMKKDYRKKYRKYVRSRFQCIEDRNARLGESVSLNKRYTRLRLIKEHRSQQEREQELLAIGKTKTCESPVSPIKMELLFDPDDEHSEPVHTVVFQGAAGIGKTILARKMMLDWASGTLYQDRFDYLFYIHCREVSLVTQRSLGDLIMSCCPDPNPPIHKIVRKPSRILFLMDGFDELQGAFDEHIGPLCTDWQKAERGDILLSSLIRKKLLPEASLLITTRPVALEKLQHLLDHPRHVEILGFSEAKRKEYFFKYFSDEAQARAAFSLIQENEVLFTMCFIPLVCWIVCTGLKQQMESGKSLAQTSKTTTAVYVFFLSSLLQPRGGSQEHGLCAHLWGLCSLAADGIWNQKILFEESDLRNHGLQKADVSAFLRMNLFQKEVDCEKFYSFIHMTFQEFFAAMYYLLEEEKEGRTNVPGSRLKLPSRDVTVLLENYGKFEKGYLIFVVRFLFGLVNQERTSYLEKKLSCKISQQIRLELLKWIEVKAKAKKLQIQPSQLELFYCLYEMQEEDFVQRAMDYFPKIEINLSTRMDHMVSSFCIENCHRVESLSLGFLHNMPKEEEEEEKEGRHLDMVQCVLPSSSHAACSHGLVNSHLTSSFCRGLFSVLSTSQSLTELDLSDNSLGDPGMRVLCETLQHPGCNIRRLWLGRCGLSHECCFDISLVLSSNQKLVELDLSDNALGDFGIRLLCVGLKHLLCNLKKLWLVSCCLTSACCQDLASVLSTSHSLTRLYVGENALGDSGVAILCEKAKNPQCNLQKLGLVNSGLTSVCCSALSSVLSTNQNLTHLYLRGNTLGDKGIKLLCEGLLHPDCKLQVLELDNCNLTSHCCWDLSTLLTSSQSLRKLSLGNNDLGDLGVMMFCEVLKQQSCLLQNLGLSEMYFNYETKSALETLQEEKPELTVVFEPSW
NLRP3 inflammasome (Mus musculus, UniProt Q8R4B8), sequence (Q8R4B8 whole entry): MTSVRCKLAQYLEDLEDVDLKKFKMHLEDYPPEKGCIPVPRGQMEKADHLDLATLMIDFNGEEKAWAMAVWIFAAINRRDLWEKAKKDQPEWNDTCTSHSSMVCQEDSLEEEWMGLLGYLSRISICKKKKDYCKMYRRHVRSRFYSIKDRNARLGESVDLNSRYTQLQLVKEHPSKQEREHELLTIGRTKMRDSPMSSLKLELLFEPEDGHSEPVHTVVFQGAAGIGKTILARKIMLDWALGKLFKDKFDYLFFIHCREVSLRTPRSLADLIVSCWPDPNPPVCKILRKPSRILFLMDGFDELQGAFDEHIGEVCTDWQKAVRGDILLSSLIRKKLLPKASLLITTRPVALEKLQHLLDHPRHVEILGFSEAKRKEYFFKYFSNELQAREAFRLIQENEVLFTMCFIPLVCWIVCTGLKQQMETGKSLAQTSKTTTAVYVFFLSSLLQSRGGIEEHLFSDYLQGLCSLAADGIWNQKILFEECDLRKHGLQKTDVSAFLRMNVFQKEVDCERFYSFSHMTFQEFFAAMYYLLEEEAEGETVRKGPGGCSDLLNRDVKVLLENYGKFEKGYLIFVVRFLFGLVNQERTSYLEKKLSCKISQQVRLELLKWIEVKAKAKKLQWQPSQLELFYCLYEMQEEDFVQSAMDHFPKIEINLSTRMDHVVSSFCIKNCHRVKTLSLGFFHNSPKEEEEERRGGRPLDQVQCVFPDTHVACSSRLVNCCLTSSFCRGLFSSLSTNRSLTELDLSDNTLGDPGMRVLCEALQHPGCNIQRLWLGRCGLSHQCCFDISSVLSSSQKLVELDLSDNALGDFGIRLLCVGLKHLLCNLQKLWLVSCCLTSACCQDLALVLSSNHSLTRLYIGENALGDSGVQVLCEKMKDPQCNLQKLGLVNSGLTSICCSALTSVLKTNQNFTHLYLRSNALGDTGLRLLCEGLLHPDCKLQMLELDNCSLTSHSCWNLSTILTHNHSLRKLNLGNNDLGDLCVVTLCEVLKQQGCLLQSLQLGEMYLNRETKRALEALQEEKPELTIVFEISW

Compound: CC(=O)c1ccc(S(=O)(=O)NC(=O)Nc2c3c(cc4c2CCC4)CCC3)cc1 [4-Acetyl-N-((1,2,3,5,6,7-hexahydro-s-indacen-4-yl)carbamoyl)benzenesulfonamide]
- pIC50 [1, 3]: > 6.00
- pIC50 [2, 4]: > 7.00

Compound: Nc1ccc(S(=O)(=O)NC(=O)Nc2c3c(cc4c2CCC4)CCC3)cc1 [4-Amino-N-((1,2,3,5,6,7-hexahydro-s-indacen-4-yl)carbamoyl)benzenesulfonamide]
- pIC50 [1, 3]: > 6.00
- pIC50 [2, 4]: > 7.00

Compound: CC(=O)c1ccc(S(=O)(=O)NC(=O)NC2CCCCC2)cc1 [Acetohexamide, reference compound]
- pIC50 [1, 5]: < 3.70
- pIC50 [2, 6]: < 3.70

Compound: CCCNC(=O)NS(=O)(=O)c1ccc(Cl)cc1 [Chlorpropamide, reference compound]
- pIC50 [1, 5]: < 3.70
- pIC50 [2, 6]: < 3.70

Compound: Cc1ccc(S(=O)(=O)NC(=O)NN2CC3CCCC3C2)cc1 (stereo not shown) [Gliclazide, reference compound]
- pIC50 [1, 5]: < 3.70
- pIC50 [2, 6]: < 3.70

Compound: Cc1cnc(C(=O)NCCc2ccc(S(=O)(=O)NC(=O)NC3CCCCC3)cc2)cn1 [Glipizide, reference compound]
- pIC50 [1, 5]: < 3.70
- pIC50 [2, 6]: < 3.70

Compound: COc1ccc2c(c1)C(=O)N(CCc1ccc(S(N)(=O)=O)cc1)C(=O)C2(C)C [Gliquidone precursor, 4-(2-(7-Methoxy-4,4-dimethyl-1,3-dioxo-3,4-dihydroisoquinolin-2(1H)-yl)ethyl)benzenesulfonamide, reference compound]
- pIC50 [1, 5]: < 3.70
- pIC50 [2, 6]: < 5.00

Compound: COc1cccc(S(=O)(=O)NC(=O)Nc2c3c(cc4c2CCC4)CCC3)c1 [N-(1,2,3,5,6,7-hexahydros-indacen-4-ylcarbamoyl)-3-methoxybenzenesulfonamide]
- pIC50 [1, 3]: > 7.00
- pIC50 [2, 4]: > 7.00

Compound: O=C(CCCC[C@@H]1SC[C@@H]2NC(=O)N[C@@H]21)NCCCn1cc(CCC(=O)Nc2cccc(S(=O)(=O)NC(=O)Nc3c4c(cc5c3CCC5)CCC4)c2)nn1 [N-(3-(4-(3-((3-(N-((1,2,3,5,6,7-hexahydro-s-indacen-4-yl)carbamoyl)sulfamoyl)phenyl)amino)-3-oxopropyl)-1H-1,2,3-triazol-1-yl)propyl)-5-((3aS,4S,6aR)-2-oxohexahydro-1H-thieno[3,4-d]imidazol-4-yl)pentanamide]
- pIC50 [1, 3]: > 5.00
- pIC50 [2, 4]: > 5.00

Compound: Cc1cc(C(=O)NCCc2ccc(S(=O)(=O)NC(=O)Nc3c4c(cc5c3CCC5)CCC4)cc2)no1 [N-(4-(N-((1,2,3,5,6,7-hexahydro-s-indacen-4-yl)carbamoyl)sulfamoyl)phenethyl)-5-methylisoxazole-3-carboxamide]
- pIC50 [1, 3]: > 6.00
- pIC50 [2, 4]: > 6.00

Compound: CC(C)n1cc(S(=O)(=O)NC(=O)Nc2c3c(cc4c2CCC4)CCC3)nn1 [N-((1,2,3,5,6,7-hexahydro-s-indacen-4-yl)carbamoyl)-1-isopropyl-1H-1,2,3-triazole-4-sulfonamide]
- pIC50 [1, 3]: > 7.00
- pIC50 [2, 4]: > 6.00

Compound: O=C(Nc1c2c(cc3c1CCC3)CCC2)NS(=O)(=O)c1ccc2c(c1)CCC2 [N-((1,2,3,5,6,7-hexahydro-s-indacen-4-yl)carbamoyl)-2,3-dihydro-1H-indene-5-sulfonamide]
- pIC50 [1, 3]: > 5.00
- pIC50 [2, 4]: > 7.00

Compound: O=C(Nc1c2c(cc3c1CCC3)CCC2)NS(=O)(=O)c1cccc(OC(F)(F)F)c1 [N-((1,2,3,5,6,7-hexahydro-s-indacen-4-yl)carbamoyl)-3-(trifluoromethoxy)benzenesulfonamide]
- pIC50 [1, 3]: > 6.00
- pIC50 [2, 4]: > 6.00

Compound: O=C(Nc1c2c(cc3c1CCC3)CCC2)NS(=O)(=O)c1cccc(C(F)(F)F)c1 [N-((1,2,3,5,6,7-hexahydro-s-indacen-4-yl)carbamoyl)-3-(trifluoromethyl)benzenesulfonamide]
- pIC50 [1, 3]: > 7.00
- pIC50 [2, 4]: > 6.00

Compound: COc1ccc2c(c1)C(=O)N(CCc1ccc(S(=O)(=O)NC(=O)Nc3c4c(cc5c3CCC5)CCC4)cc1)C(=O)C2(C)C [N-((1,2,3,5,6,7-hexahydro-s-indacen-4-yl)carbamoyl)-4-(2-(7-methoxy-4,4-dimethyl-1,3-dioxo-3,4-dihydroisoquinolin-2(1H)-yl)ethyl)benzenesulfonamide]
- pIC50 [1, 3]: > 5.00
- pIC50 [2, 4]: > 6.00

Compound: O=C(Nc1c2c(cc3c1CCC3)CCC2)NS(=O)(=O)c1ccc(CCNc2ccc([N+](=O)[O-])c3nonc23)cc1 [N-((1,2,3,5,6,7-hexahydro-s-indacen-4-yl)carbamoyl)-4-(2-((7-nitrobenzo[c][1,2,5]oxadiazol-4-yl)amino)ethyl)benzenesulfonamide]
- pIC50 [1, 3]: > 6.00
- pIC50 [2, 4]: > 6.00

Compound: C=C(C)c1coc(S(=O)(=O)NC(=O)Nc2c3c(cc4c2CCC4)CCC3)c1 [N-((1,2,3,5,6,7-hexahydro-s-indacen-4-yl)carbamoyl)-4-(prop-1-en-2-yl)furan-2-sulfonamide]
- pIC50 [1, 3]: > 6.00
- pIC50 [2, 4]: > 6.00

Compound: CC(C)(O)c1coc(S(=O)(=O)NC(=O)Nc2ccc(C(F)(F)F)cc2C(F)(F)F)c1 [N-((2,4-bis(trifluoromethyl)phenyl)carbamoyl)-4-(2-hydroxypropan-2-yl)furan-2-sulfonamide]
- pIC50 [1, 3]: > 5.00
- pIC50 [2, 4]: > 6.00

Compound: CC(C)(O)c1coc(S(=O)(=O)NC(=O)Nc2cc(C(F)(F)F)ccc2C(F)(F)F)c1 [N-((2,5-bis(trifluoromethyl)phenyl)carbamoyl)-4-(2-hydroxypropan-2-yl)furan-2-sulfonamide]
- pIC50 [1, 3]: > 5.00
- pIC50 [2, 4]: > 6.00

Compound: Cc1cc(C)nc(NC(=O)NS(=O)(=O)c2cc(C(C)(C)O)co2)n1 [N-((4,6-dimethylpyrimidin-2-yl)carbamoyl)-4-(2-hydroxypropan-2-yl)furan-2-sulfonamide]
- pIC50 [1, 7]: < 4.30
- pIC50 [2, 8]: < 5.00

Compound: CC(C)n1ccc(S(=O)(=O)NC(=O)Nc2c(C3CC3)cc(Cl)cc2C2CC2)n1 [N-((4-chloro-2,6-dicyclopropylphenyl)carbamoyl)-1-isopropyl-1H-pyrazole-3-sulfonamide]
- pIC50 [1, 3]: > 6.00
- pIC50 [2, 4]: > 6.00

Compound: CCc1cc(Cl)cc(CC)c1NC(=O)NS(=O)(=O)c1ccn(C(C)C)n1 [N-((4-chloro-2,6-diethylphenyl)carbamoyl)-1-isopropyl-1H-pyrazole-3-sulfonamide]
- pIC50 [1, 3]: > 5.00
- pIC50 [2, 4]: > 5.00

Compound: CC(C)c1cc(Cl)cc(C(C)C)c1NC(=O)NS(=O)(=O)c1cc2ccccc2s1 [N-((4-chloro-2,6-diisopropylphenyl)carbamoyl)benzo[b]thiophene-2-sulfonamide]
- pIC50 [1, 3]: > 7.00
- pIC50 [2, 4]: > 6.00

Compound: CC(C)c1cc(Cl)cc(C(C)C)c1NC(=O)NS(=O)(=O)c1cc2ccccc2o1 [N-((4-chloro-2,6-diisopropylphenyl)carbamoyl)benzofuran-2-sulfonamide]
- pIC50 [1, 3]: > 7.00
- pIC50 [2, 4]: > 7.00

Compound: COc1cc(Cl)cc(OC)c1NC(=O)NS(=O)(=O)c1ccn(C(C)C)n1 [N-((4-chloro-2,6-dimethoxyphenyl)carbamoyl)-1-isopropyl-1H-pyrazole-3-sulfonamide]
- pIC50 [1, 3]: > 4.30
- pIC50 [2, 8]: < 5.00

Compound: Cc1cc(Cl)cc(C)c1NC(=O)NS(=O)(=O)c1ccn(C(C)C)n1 [N-((4-chloro-2,6-dimethylphenyl)carbamoyl)-1-isopropyl-1H-pyrazole-3-sulfonamide]
- pIC50 [1, 3]: > 5.00
- pIC50 [2, 8]: < 5.00

Compound: Cc1cc(Cl)cc(C(F)(F)F)c1NC(=O)NS(=O)(=O)c1ccn(C(C)C)n1 [N-((4-chloro-2-methyl-6-(trifluoromethyl)phenyl)carbamoyl)-1-isopropyl-1H-pyrazole-3-sulfonamide]
- pIC50 [1, 3]: > 5.00
- pIC50 [2, 8]: < 5.00

Compound: O=C(Nc1ccc(Cl)cc1)NS(=O)(=O)c1ccc2c(c1)CCC2 [N-((4-chlorophenyl)carbamoyl)-2,3-dihydro-1H-indene-5-sulfonamide]
- pIC50 [1, 7]: < 4.00
- pIC50 [2, 8]: < 5.00

Compound: CC(C)n1ccc(S(=O)(=O)NC(=O)Nc2c(C3CC3)cc(Cl)c3c2CCC3)n1 [N-((7-chloro-5-cyclopropyl-2,3-dihydro-1H-inden-4-yl)carbamoyl)-1-isopropyl-1H-pyrazole-3-sulfonamide]
- pIC50 [1, 3]: > 6.00
- pIC50 [2, 4]: > 6.00

Compound: CC(C)(O)c1coc(S(=O)(=O)NC(=O)Nc2c3c(c(Br)c4c2CCC4)CCC3)c1 [N-((8-bromo-1,2,3,5,6,7-hexahydro-s-indacen-4-yl)carbamoyl)-4-(2-hydroxypropan-2-yl)furan-2-sulfonamide]
- pIC50 [1, 3]: > 7.00
- pIC50 [2, 4]: > 7.00

Compound: CC(C)(O)c1coc(S(=O)(=O)NC(=O)Nc2c3c(c(Cl)c4c2CCC4)CCC3)c1 [N-((8-chloro-1,2,3,5,6,7-hexahydro-s-indacen-4-yl)carbamoyl)-4-(2-hydroxypropan-2-yl)furan-2-sulfonamide]
- pIC50 [1, 3]: > 7.00
- pIC50 [2, 4]: > 7.00

Compound: O=C(Nc1ccc2ncccc2c1)NS(=O)(=O)c1cccc(C2(C(F)(F)F)N=N2)c1 [N-(quinolin-6-ylcarbamoyl)-3-(3-(trifluoromethyl)-3H-diazirin-3-yl)benzenesulfonamide]
- IC50 ([1]; inhibition of IL-1β release, uM, read-out: Avg. IL-1β IC50 HMDM): > 50 µM
- IC50 ([2]; inhibition of IL-1β release, uM, read-out: Avg. IL-1β IC50 Murine BMDM): > 50 µM
